# Article PMC11206297, “Targeting NAD Metabolism: Rational Design, Synthesis and In Vitro Evaluation of NAMPT/PARP1 Dual-Target Inhibitors as Anti-Breast Cancer Agents” (Molecules, 2024)
# Key:
# MCF-10A = test: MTT cell viability assay, MCF-10A normal breast epithelial cells; assay type: cell-based, human; conditions: for viability at 3 µM: Homo sapiens, 72 h, MCF-10A, mean ± SEM, read-out: Cell Survival Rate
# Description: (§1) MDA-MB-468, MDA-MB-231, MCF-7, and MCF-10A cell lines were obtained from the National Collection of Authenticated Cell Culture, China. The cells were cultured in DMEM medium supplemented with 10% FBS and 1% penicillin/streptomycin, and maintained at 37 °C in a humidified atmosphere with 5% CO2.
# (§2) Cell viability was assessed using the MTT assay. Cells were seeded at a density of 3 × 10^3 cells per well in a 96-well plate and treated with various concentrations (0.05, 0.2, 0.8, 3.2, 6.4, 12.8 µM) of the compounds for 72 h. After incubation, 100 µL of MTT solution (0.5 mg/mL) was added to each well and further incubated for 4 h. The resulting formazan crystals were dissolved in 150 µL of DMSO, and the absorbance was measured at 570 nm using a microplate reader.
# MDA-MB-231 = test: MTT cell viability assay, MDA-MB-231; assay type: cell-based; conditions: Homo sapiens, 72 h, mean ± SEM, read-out: Cytotoxicity IC50 MDA-MB-231
# Description: as §1, §2
# MDA-MB-468 = test: MTT cell viability assay, MDA-MB-468; assay type: cell-based; conditions: Homo sapiens, 72 h, mean ± SEM, read-out: Cytotoxicity IC50 MDA-MB-468
# Description: as §1, §2
# PARP1 = PARP1 (Homo sapiens, UniProt P09874); test: PARP1 enzymatic inhibition assay (ELISA, chemiluminescence); assay type: biochemical; conditions: for inhibition at 0.5 µM: duplicate, average, read-out: PARP1 Inhibition Rate; for IC50: mean ± SD of at least two independent experiments in duplicate
# PARP1, sequence (P09874 whole entry): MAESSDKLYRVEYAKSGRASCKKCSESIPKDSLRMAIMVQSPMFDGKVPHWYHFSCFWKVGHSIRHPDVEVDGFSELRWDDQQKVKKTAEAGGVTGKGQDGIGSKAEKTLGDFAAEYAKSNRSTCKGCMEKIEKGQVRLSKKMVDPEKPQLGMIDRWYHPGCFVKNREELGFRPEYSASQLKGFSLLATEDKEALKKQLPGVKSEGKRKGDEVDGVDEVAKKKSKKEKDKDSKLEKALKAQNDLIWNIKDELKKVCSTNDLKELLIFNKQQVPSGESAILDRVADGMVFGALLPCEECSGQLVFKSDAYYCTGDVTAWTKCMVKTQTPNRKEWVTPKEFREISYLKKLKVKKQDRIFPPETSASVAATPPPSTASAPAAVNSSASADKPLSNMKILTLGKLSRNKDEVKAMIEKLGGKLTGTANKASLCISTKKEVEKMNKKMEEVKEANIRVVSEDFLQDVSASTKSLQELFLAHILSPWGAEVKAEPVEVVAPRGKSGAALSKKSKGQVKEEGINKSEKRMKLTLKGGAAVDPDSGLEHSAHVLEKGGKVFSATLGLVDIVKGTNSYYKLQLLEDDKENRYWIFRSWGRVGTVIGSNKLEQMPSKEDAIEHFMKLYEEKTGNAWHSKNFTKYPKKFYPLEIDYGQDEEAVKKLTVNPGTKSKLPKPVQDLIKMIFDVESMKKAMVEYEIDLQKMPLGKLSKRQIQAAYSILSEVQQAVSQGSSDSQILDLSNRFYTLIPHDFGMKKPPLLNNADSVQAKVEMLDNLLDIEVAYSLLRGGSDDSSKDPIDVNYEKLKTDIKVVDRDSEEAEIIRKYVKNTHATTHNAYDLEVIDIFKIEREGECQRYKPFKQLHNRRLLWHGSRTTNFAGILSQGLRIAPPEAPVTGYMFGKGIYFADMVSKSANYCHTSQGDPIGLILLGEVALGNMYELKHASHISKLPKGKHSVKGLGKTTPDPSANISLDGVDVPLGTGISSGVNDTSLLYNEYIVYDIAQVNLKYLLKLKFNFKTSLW
# MCF-7 = test: MTT cell viability assay, MCF-7; assay type: cell-based; conditions: Homo sapiens, MCF7, 72 h, mean ± SEM, read-out: Cytotoxicity IC50 MCF-7
# Description: as §1, §2
# NAMPT = NAMPT (Homo sapiens, UniProt P43490); test: NAMPT enzymatic inhibition assay (fluorescence, coupled NMNAT/alcohol dehydrogenase); assay type: biochemical; conditions: for inhibition at 0.1 µM / NAMPT Inhibition Rate: duplicate, average, 0.1 μM; for inhibition at 0.1 µM: read-out: NAMPT Inhibition Rate; for IC50: mean ± SD of at least two independent experiments in duplicate
# NAMPT, sequence (P43490 whole entry): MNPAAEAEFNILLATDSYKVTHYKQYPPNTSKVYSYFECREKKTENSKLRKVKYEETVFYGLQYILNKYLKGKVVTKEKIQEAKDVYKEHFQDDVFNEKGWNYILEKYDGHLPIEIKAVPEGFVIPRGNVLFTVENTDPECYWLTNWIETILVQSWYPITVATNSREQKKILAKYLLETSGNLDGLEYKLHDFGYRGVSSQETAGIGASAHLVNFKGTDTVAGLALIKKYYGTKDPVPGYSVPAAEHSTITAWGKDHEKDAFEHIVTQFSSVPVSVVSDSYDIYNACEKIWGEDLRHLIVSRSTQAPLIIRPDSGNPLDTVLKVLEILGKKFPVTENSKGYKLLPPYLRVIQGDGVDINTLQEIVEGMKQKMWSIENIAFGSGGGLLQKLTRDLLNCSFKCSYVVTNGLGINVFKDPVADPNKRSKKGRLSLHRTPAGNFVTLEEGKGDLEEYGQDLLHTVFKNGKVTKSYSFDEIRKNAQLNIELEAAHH
# [1] = MTT cell viability assay, MCF-10A normal breast epithelial cells; assay type: cell-based, human; conditions: human, MCF-10A normal breast epithelial cells; MCF-10A; mean ± SEM; read-out: Cytotoxicity IC50
# Description: as §1, §2
# MDA-MB-468 cells [2] = test: Cellular NAD level determination (NAD+/NADH WST-8 kit); assay type: cell-based; conditions: 24 h, 1 μM
# Description: According to the manufacturer’s instructions, an NAD^+/NADH Assay kit with WST-8 (Beyotime, China) was used to measure the intracellular NAD level. The cells collected by centrifugation were added to NAD^+/NADH lysis buffer to obtain a cell lysate. After adding […] working solution, the lysate was incubated at 37 °C for 10 min, and then followed by the addition of color-developing solution. The total concentration of NADH and NAD can be measured by detecting the absorbance at 450 nm. To measure the concentration of NADH, the cell lysate was incubated at 60 °C for 30 min before adding […] working solution. Finally, the NAD content is obtained by the subtraction [NAD^+] = [NADH + NAD^+] − [NADH].
# MDA-MB-468 cells [3] = test: Wound scratch cell migration assay; assay type: cell-based; conditions: 1 μM, up to 48 h
# Description: MDA-MB-468 cells were plated in 6-well plates at a density of 5 × 10^5 cells/well and allowed to incubate overnight. A scratch was carefully generated in the cell monolayer using a 10 µL pipette tip. […] Images were acquired at 0, 12, 24, and 48 h time points to monitor and analyze the migration of cells over the specified intervals.
# MDA-MB-468 cells [4] = test: Western blot of BCL2; assay type: cell-based; conditions: 24 h, 1 μM
# Description: Cells were then lysed using RIPA buffer supplemented with protease and phosphatase inhibitors. Protein concentrations were determined using the BCA Protein Assay Kit (Thermo Fisher Scientific^TM, Waltham, MA, USA). Equal amounts of protein (20–30 µg) were separated by SDS-polyacrylamide gel electrophoresis and transferred to a polyvinylidene fluoride (PVDF) membrane. The membrane was blocked with 5% milk in PBS before incubation with primary antibodies. Primary antibodies against γ-H2AX (Cell Signaling Technology™, Danvers, MA, USA), BCL2 (Abcam™, Cambridge, UK), and β-actin (Proteintech™, Rosemont, IL, USA) were used. After overnight incubation at 4 °C, membranes were washed and incubated with HRP-conjugated secondary antibodies for 1 h. Protein bands were visualized using ECL reagents (Labgic Technology^TM, Beijing, China).
Structure (SMILES),viability at 3 µM (MCF-10A) [%],melting point [°C],IC50 (MDA-MB-231) [µM],IC50 (MDA-MB-468) [µM],inhibition at 0.5 µM (PARP1) [%],IC50 (MCF-7) [µM],inhibition at 0.1 µM (NAMPT) [%],IC50 (PARP1) [µM],IC50 (NAMPT) [µM],selectivity of cytotoxic activity between breast cancer cells and normal cells (MCF-10A) (MCF-10A; comparison of Tables 2 and 3),IC50 at 72 h [1] [µM],cellular NAD levels (MDA-MB-468 cells [2]),inhibitory effect on cell migration (MDA-MB-468 cells [3]),BCL2 expression (MDA-MB-468 cells [4]),NAMPT Inhibition Rate (NAMPT) [%],fold decrease in inhibitory capacity against PARP1 compared to Olaparib (PARP1; ratio of IC50 values) [fold]
"NC(=O)c1cc(F)ccc1OCc1cccc(C(=O)N2CCN(S(=O)(=O)c3ccc(NC(=O)NCc4cccnc4)cc3)CC2)c1 [DDY09, 5-Fluoro-2-((3-(4-((4-(3-(pyridin-3-ylmethyl)ureido)phenyl)sulfonyl)piperazine-1-carbonyl)benzyl)oxy)benzamide]",66.9 ± 2.45,147 to 148,8.7 ± 0.24,6.98 ± 0.57,78,11 ± 0.82,86,,,,,,,,,
"O=C(NCc1cccnc1)Nc1ccc(S(=O)(=O)N2CCN(C(=O)CCc3nc4ccccc4c(=O)[nH]3)CC2)cc1 [DDY03, 1-(4-((4-(3-(4-Oxo-3,4-dihydroquinazolin-2-yl)propanoyl)piperazin-1-yl)sulfonyl)phenyl)-3-(pyridin-3-ylmethyl)urea]",80.7 ± 1.5,120 to 121,10.9 ± 0.68,8.17 ± 0.31,,11.2 ± 0.79,,0.025 ± 0.007,0.055 ± 0.019,,,,,,,
"NC(=O)c1cc(F)ccc1OCc1ccc(F)c(C(=O)N2CCN(S(=O)(=O)c3ccc(NC(=O)NCc4cccnc4)cc3)CC2)c1 [DDY07, 5-Fluoro-2-((4-fluoro-3-(4-((4-(3-(pyridin-3-ylmethyl)ureido)phenyl)sulfonyl)piperazine-1-carbonyl)benzyl)oxy)benzamide]",70.73 ± 0.07,122 to 123,8.1 ± 0.71,7.43 ± 0.23,92,13.5 ± 0.16,84,,,,,,,,,
"O=C(c1cc(Cc2n[nH]c(=O)c3ccccc23)ccc1F)N1CCN(C(=O)C2CC2)CC1 [Olaparib, reference compound]",91.8 ± 1.78,,6.74 ± 0.08,6.19 ± 0.09,,8.68 ± 0.81,,,,no selectivity,9.61 ± 0.77,did not alter intracellular NAD levels compared to the control,most robust inhibitory effect,significantly inhibited the expression of the BCL2 protein,,
"NC(=O)c1ccccc1OCc1ccc(F)c(C(=O)N2CCN(S(=O)(=O)c3ccc(NC(=S)NCc4cccnc4)cc3)CC2)c1 [DDY04, 2-((4-Fluoro-3-(4-((4-(3-(pyridin-3-ylmethyl)thioureido)phenyl)sulfonyl)piperazine-1-carbonyl)benzyl)oxy)benzamide]",98.4 ± 1.74,125 to 126,13.5 ± 0.66,14.1 ± 0.3,70,13.4 ± 2.41,84 to 86,,,,,,,,84,
"NC(=O)c1ccccc1OCc1ccc(F)c(C(=O)N2CCN(S(=O)(=O)Cc3ccc(NC(=O)NCc4cccnc4)cc3)CC2)c1 [DDY06, 2-((4-Fluoro-3-(4-((4-(3-(pyridin-3-ylmethyl)ureido)benzyl)sulfonyl)piperazine-1-carbonyl)benzyl)oxy)benzamide]",69.5 ± 2.56,,15.4 ± 2.15,17.2 ± 1.57,89,7.95 ± 0.34,48,,,,,,,,,
"NC(=O)c1ccccc1OCc1ccc(F)c(C(=O)N2CCN(S(=O)(=O)c3ccc(NC(=O)NCc4cccnc4)cc3)CC2)c1 [DDY05, 2-((4-Fluoro-3-(4-((4-(3-(pyridin-3-ylmethyl)ureido)phenyl)sulfonyl)piperazine-1-carbonyl)benzyl)oxy)benzamide]",88.7 ± 2.41,119 to 120,10.2 ± 0.29,8.02 ± 0.74,,> 20,84 to 86,,,,,,,,86,
"O=C(c1cc(Cc2n[nH]c(=O)c3ccccc23)ccc1F)N1CCN(S(=O)(=O)c2ccc(NC(=S)NCc3cccnc3)cc2)CC1 [DDY01, 1-(4-((4-(2-Fluoro-5-((4-oxo-3,4-dihydrophthalazin-1-yl)methyl)benzoyl)piperazin-1-yl)sulfonyl)phenyl)-3-(pyridin-3-ylmethyl)thiourea]",67.1 ± 1.73,189 to 190,6.17 ± 0.27,5.09 ± 0.09,,8.48 ± 0.18,83,0.009 ± 0.002,,,,,,,,4.5
"NC(=O)c1ccccc1OCc1cccc(C(=O)N2CCN(S(=O)(=O)c3ccc(NC(=O)NCc4cccnc4)cc3)CC2)c1 [DDY08, 2-((3-(4-((4-(3-(Pyridin-3-ylmethyl)ureido)phenyl)sulfonyl)piperazine-1-carbonyl)benzyl)oxy)benzamide]",72.6 ± 3.46,202 to 203,11.1 ± 0.19,12.9 ± 1.69,69,9.18 ± 0.44,80,,,,,,,,,
"NC(=O)c1cccc2[nH]c(C(=O)N3CCN(S(=O)(=O)c4ccc(NC(=S)NCc5cccnc5)cc4)CC3)nc12 [DDY10, 2-(4-((4-(3-(Pyridin-3-ylmethyl)thioureido)phenyl)sulfonyl)piperazine-1-carbonyl)-1H-benzo[d]imidazole-4-carboxamide]",96.9 ± 1.71,> 250,4.45 ± 0.29,6.74 ± 0.16,55,8.83 ± 0.31,7,,,,,,,,,
"NC(=O)c1cccc2[nH]c(C(=O)N3CCN(S(=O)(=O)c4ccc(NC(=O)NCc5cccnc5)cc4)CC3)nc12 [DDY11, 2-(4-((4-(3-(Pyridin-3-ylmethyl)ureido)phenyl)sulfonyl)piperazine-1-carbonyl)-1H-benzo[d]imidazole-4-carboxamide]",82.15 ± 0.21,> 250,13.8 ± 0.33,12.2 ± 1.39,,7.39 ± 0.34,,0.014 ± 0.003,0.034 ± 0.009,,,,,,,
